Assay results reported in patent US20220175762A1, “IMMUNE MODULATORY COMPOSITIONS AND METHODS FOR TREATING CANCERS” (Birdie Biopharmaceuticals, Inc., priority 2019, published 2022).

Assays:
[1] = test system: C26 colon tumor cell line; experiment: In vivo tumor cell killing, C26 syngeneic tumor model, cyclophosphamide with TLRL combination therapy; design: dose or concentration left out as unconfirmed; details: C26 cells s.c. in BALB/c mice; cyclophosphamide i.p., TLRL (resiquimod) i.v., or both; once weekly for three times; FIG. 1B
Method: FIG. 1A-D depicts evaluation of the antitumor effects of Cyclophosphamide/TLRL combination therapy in syngeneic tumor model. FIG. 1A: Scheme of therapy protocol developed to treat C26 tumor. The treatment was initiated at d10 with tumor size 100-120 mm^3 following tumor challenges, and was administered weekly for 3 cycles starting at day 10. FIG. 1B: Antitumor effects of systemic TLRL (Resiquimod) in C26 tumor model. 4×10^5 cells were inoculated subcutaneously in Balb/c mice. After the tumor was allowed to grow for 10 days, groups of 8 mice were treated with Vehicle or with intraperitoneally administration of 1 mg of Cyclophosphamide, or with intravenously administered 1.6 g of TLRL or combination therapy at the dose shown. The compound was administered weekly for three cycles. The data are represented by the median tumor volume measurements of each group. Data for each group of 8 mice are expressed as means±SD. Statistical comparisons were performed using Student's t-Test. […]
All BALB/c mice were maintained under specific pathogen free conditions and used between 6-16 weeks of age in accordance to the animal experimental guidelines set by the Institutional Animal Care and Use Committee. […] Tumor volumes were measured along three orthogonal axes (x, y, and z) and calculated as tumor volume=(xyz)/2. […]

[2] = test system: IFNα inducible genes MX2, ISG15 and IRF7; experiment: IFNα inducible gene expression (quantitative RT-PCR) in draining lymph nodes and spleen of treated mice; format: in vivo; details: draining LNs and spleen of C26 tumor-bearing Balb/c mice, second day of second weekly treatment, FIG. 3
Method: Expression of IFNα inducible genes in dLN and spleen of treated mouse. RNA was isolated from draining lymph nodes and spleen after second treatment with TLRL or cyclophosphamide or combination therapy and relative expression of IFNα inducible genes MX2, ISG15 and IRF7 were determined by quantitative RT-PCR. Values indicate the mRNA expression of indicated IFNα inducible genes relative to housekeeping gene Actin.
Balb/c mice, 6-8 weeks of age, female, purchased from Vital River Beijing, C26 cells were injected s.c. in the back of anesthetized mice. Treatment was started when tumor volumes reached 100-120 mm^3, i.p. injections of cyclophosphamide or i.v. injections of […] of TLRL (resiquimod) or a combination of the treatments were given once weekly. On second day of second treatment, (that is, on the eighth day) draining LNs and spleen from treated mice were dissected and RNA was extracted using TRIzol reagent. After cDNA was reversed-transcribed, the quantitative Real-Time PCR was performed and IFNα inducible gene expression data were normalized relative to geometric mean of […] housekeeping genes (Actin): […]

[3] = test system: CD45^+ cell infiltration in C26 tumor; experiment: Immunohistochemistry of CD45 positive cells in tumors of treated mice; format: in vivo; design: dose or concentration left out as unconfirmed; details: C26 tumor in Balb/c mice, tumor taken on second day of second weekly treatment, cyclophosphamide i.p., TLRL i.v., FIG. 2
Method: Histological characterization of CD45 positive cells were performed in treated mice. Tumor samples were obtained from mice treated with TLRL, cyclophosphamide or TLRL/cyclophosphamide. Histological sections were counterstained with hematoxylin and eosin (H&E).
Balb/c mice, 6-8 weeks of age, female, purchased from Vital River Beijing, C26 cells were injected s.c. in the back of anesthetized mice. Treatment was started when tumor volumes reached 100-120 mm^3, i.p. injections of cyclophosphamide or i.v. injections of 1.6 g of TLRL (resiquimod) or combination were given once weekly. On second day of second treatment, tissue specimens of the tumor from treated mice were surgically removed, fixed in 4% buffered formaldehyde for 24 h, processed into paraffin, then sectioned at 5 μm. For immunohistochemistry, tissue sections were deparaffinised followed by antigen-retrieval in Tris-EDTA buffer (0.01 M pH 9.0) at high temperature (water bath, 30 minutes at 98° C.). […] After washing with PBS three times, secondary antibody goat antibody rat HPR was applied. Standard DAB (3,3′-diaminobenzidine) kit was used for visualization and section was counterstained with H&E used according to the protocols recommended by the manufacturer.

Structure (SMILES)	effect in reducing tumor volume [1]	IFNα inducible gene expression (MX2, ISG15, IRF7) relative to Actin [2]	IFNα inducible gene expression (MX2, ISG15, IRF7) relative to Actin ([2]; listed as TLRL)	infiltration of CD45^+ cells in tumor microenvironment [3]	infiltration of CD45^+ cells in tumor microenvironment ([3]; listed as TLRL)
CCOCc1nc2c(N)nc3ccccc3c2n1CC(C)(C)O [TLRL (resiquimod), 4-amino-2-(ethoxymethyl)-a,a-di-methyl-1H-imidazo[4,5-c]quinoline-1-ethanol]	similar	Upregulating IFNα inducible gene clusters were observed	increased IFNα inducible gene expression	significant numbers of CD45^+ cell were infiltrated	increased infiltration of activated immune cells (CD45^+)
O=P1(N(CCCl)CCCl)NCCCO1 (stereo not drawn) [cyclophosphamide]	similar				
